The values that follow come from US20090029955A1, “Pyridothienopyrimidine Derivatives” (priority 2004, published 2009).

The assay relates to PDE4. Description: PDE4 Assay Procedure ([3H]-cAMP SPA). The format is biochemical. To be noted: 15 nM [3H]-cAMP, 1 hour at room temperature, SPA beads; compounds tested from 10 μM to 10 pM.

Method: Compounds to be tested were resuspended in DMSO at a stock concentration of 1 mM. […] These dilutions were done in 96-well plates. In some cases, plates containing diluted compounds were frozen before being assayed. In these cases, the plates were thawed at room temperature and stirred for 15 minutes.
Ten microliters of the diluted compounds were poured into a “low binding” assay plate. […] The reaction was initiated by adding ten microliters of a solution containing PDE4. The plate was then incubated under stirring for 1 hour at room temperature. After incubation the reaction was stopped with 50 microlitres of SPA beads, and the reaction was allowed to incubate for another 20 minutes at room temperature before measuring radioactivity using standard instrumentation.
The reaction mixture was prepared by adding 90 ml of H2O to 10 ml of 10× assay buffer (500 mM Tris pH 7.5, 83 mM MgCl2, 17 mM EGTA), and 40 microlitres 1 μCi/μL [3H]-cAMP. SPA beads solution was prepared by adding 500 mg to 28 ml H2O for a final concentration of 20 mg/ml beads and 18 mM zinc sulphate.

With `CC(C)Cc1nc2sc3c(NCCCN4CCCC4=O)ncnc3c2c2c1CCC(C)(C)C2` [Example 60, 1-{3-[(5-Isobutyl-2,2-dimethyl-1,2,3,4-tetrahydropyrimido[4′,5′:4,5]thieno[2,3-c]isoquinolin-8-yl)amino]propyl}pyrrolidin-2-one], the half-maximal inhibitory concentration (IC50) was 4.8 nM.

Take `CC1(C)CCc2c(-c3ccco3)nc3sc4c(NCCN5CCOCC5)ncnc4c3c2C1` [Example 62, 5-(2-Furyl)-2,2-dimethyl-N-(2-morpholin-4-ylethyl)-1,2,3,4-tetrahydropyrimido[4′,5′:4,5]thieno[2,3-c]isoquinolin-8-amine]: it took 3.8 nM to reach half-maximal inhibition (IC50).

On to `CC1(C)CCc2c(N3CCCC3)nc3sc4c(NCc5cccnc5)ncnc4c3c2C1` [Example 25], for which the IC50 came out at 1.5 nM.

Take `CCN(C)c1nc2sc3c(NCC(=O)NCC4CCCO4)ncnc3c2c2c1CCC(C)(C)C2` (stereo not drawn) [Example 54, N^2-{5-[Ethyl(methyl)amino]-2,2-dimethyl-1,2,3,4-tetrahydropyrimido[4′,5′:4,5]thieno[2,3-c]isoquinolin-8-yl}-N^1-(tetrahydrofuran-2-ylmethyl)glycinamide]: the IC50 is 10 nM.

For `CCOC(=O)N1CCN(CCNc2ncnc3c2sc2nc(N(C)C)c4c(c23)CC(C)(C)CC4)CC1` [Example 43, Ethyl 4-(2-{[5-(dimethylamino)-2,2-dimethyl-1,2,3,4-tetrahydropyrimido[4′,5′:4,5]thieno[2,3-c]isoquinolin-8-yl]amino}ethyl)piperazine-1-carboxylate], 7.9 nM corresponded to half-maximal inhibition (IC50).

The compound `CC1(C)CCc2c(N3CCSCC3)nc3sc4c(NCc5ccccn5)ncnc4c3c2C1` [Example 16, 2,2-Dimethyl-N-(pyridin-2-ylmethyl)-5-thiomorpholin-4-yl-1,2,3,4-tetrahydropyrimido[4′,5′:4,5]thieno[2,3-c]isoquinolin-8-amine] had an IC50 of 3 nM.

In the case of `CC1(C)CCc2c(N3CCCC3)nc3sc4c(NCc5ccncc5)ncnc4c3c2C1` [Example 24, 2,2-Dimethyl-N-(pyridin-4-ylmethyl)-5-pyrrolidin-1-yl-1,2,3,4-tetrahydropyrimido[4′,5′:4,5]thieno[2,3-c]isoquinolin-8-amine], it took 14 nM to reach half-maximal inhibition (IC50).

As for `CN(C)c1nc2sc3c(NCc4cccnc4)ncnc3c2c2c1CC(C)(C)C2` [Example 79, N^4,N^4,2,2-Tetramethyl-N-(pyridin-3-ylmethyl)-2,3-dihydro-1H-cyclopenta[4′,5′]pyrido[3′,2′:4,5]thieno[3,2-d]pyrimidin-4,7-diamine], the concentration for half-maximal inhibition (IC50) came out at 4.6 nM.

For the compound `CC1(C)CCc2c(N3CCCC3)nc3sc4c(NCCN5CCOCC5)ncnc4c3c2C1` [Example 23, 2,2-Dimethyl-N-(2-morpholin-4-ylethyl)-5-pyrrolidin-1-yl-1,2,3,4-tetrahydropyrimido[4′,5′:4,5]thieno[2,3-c]isoquinolin-8-amine], it took 8.1 nM to reach half-maximal inhibition (IC50).

The term IC50 denotes the midpoint of a concentration-inhibition curve. A high value points to weaker potency.
